From patent US20250034135A1, “ANTI-APOPTOTIC PROTEIN BCL-2 INHIBITOR, PHARMACEUTICAL COMPOSITION AND USES THEREOF” (HANGZHOU HEALZEN THERAPEUTICS CO., LTD., priority 2021, published 2025) come the findings set out here.

The target of series [1] is BCL-XL (Homo sapiens (Human), UniProt Q07817). The series can be described thus: BCL-XL enzyme molecular level activity test (HTRF, binding to BIM peptide). Conditions: binding of BCL-XL to BIM peptide, read-out: BCL-XL inhibitory activity (IC50). Put shortly: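 HTRF binding assay: His-tagged recombinant BCL-XL with biotin-BIM peptide and compound (2% DMSO), 1 h. Anti-His and streptavidin-XL665 detection reagents added, 4 h at room temperature. Excitation 320 nm; 665/615 nm ratio reflects binding, with no-protein background and no-compound full-binding controls.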
On the technique in general: In TR-FRET formats the signal depends on donor and acceptor labels being close together.

Series [2] concerns the target human CYP3A4 enzyme (Homo sapiens (Human), UniProt P08684). The series can be described thus: CYP3A4 enzyme inhibitory activity (Vivid CYP3A4 Green screening kit).
Procedure: The inhibitory activity of compounds on human CYP3A4 enzyme was detected using a VIVID™ CYP3A4 GREEN SCRNING KIT reagent kit. The Vivid™ CYP450 screening kit includes a Vivid™ substrate, Vivid™ fluorescence standard, reaction buffer, Vivid™ regeneration system, NADP+ and CYP450 BACULOSOMES™ Plus reagent. Operations were performed following the instructions, and a blank control group was set up without adding any compounds.
The IC50 value of the compounds inhibiting human CYP3A4 enzyme was calculated using Graphpad Prism 7.00 software through the formula Y=100/(1+10^((Log IC50−X)*HillSlope)).
Series [3] relates to RS4; 11 cells. The series can be described thus: Tumor proliferation inhibitory activity test (MTS) on RS4; 11. Type of series: cell-based. Conditions: Homo sapiens, RS4-11, 72 h, 3 days incubation. In short, it runs like this: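 RS4;11 cells were exposed to serially diluted compound (0.2% DMSO control) for 3 days at 37 °C/5% CO2, followed by MTS for 3–4 h. Read-out was OD490−OD690, and inhibition was calculated relative to the DMSO and blank wells.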

In series [4] the target is BCL2 (D103Y) (Homo sapiens (Human), UniProt P10415, D103Y). The series can be described thus: Molecular level activity test of BCL2 (D103Y) (HTRF, binding to Bim peptide). Conditions: read-out: BCL-2 (D103Y) (nM) (inhibitory activity, IC50). Put shortly: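 His-tagged recombinant protein mixed with biotinylated BIM peptide and compound (2% DMSO), reacted 1 h. Anti-His and streptavidin-XL665 detection reagents then added and incubated 4 h at room temperature before HTRF read-out of binding inhibition.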

Series [5] has as its target BCL2 (G101V) (Homo sapiens (Human), UniProt P10415, G101V). The series can be described thus: Molecular level activity test of anti-apoptotic protein BCL2 (G101V) (HTRF, binding to Bim peptide). Conditions: inhibition of BCL2 (G101V) binding to Bim peptide, read-out: BCL-2 (G101V). In short, it runs like this: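 His-tagged recombinant BCL2 (G101V) incubated 1 h with biotin-BIM peptide and compound (2% DMSO), then anti-His and streptavidin-XL665 detection reagents added for 4 h at room temperature. HTRF signal reflects compound effect on BCL2–BIM binding.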

The target of series [6] is BCL2 (Homo sapiens (Human), UniProt P10415). The series can be described thus: Molecular level activity test of anti-apoptotic protein BCL2 (HTRF, binding to Bim peptide). Conditions: HTRF, binding of BCL2 to Bim peptide; read-out: BCL2 nM (inhibitory activity, IC50). In short, it runs like this: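 Step one: compound, supplied in 2% DMSO, is mixed with His-tagged BCL2 and biotinylated Bim peptide and reacted for 1 h. Step two: anti-His and streptavidin-XL665 reagents in detection buffer are added. Step three: after a 4 h room-temperature incubation, time-resolved fluorescence is measured.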

The mark [7] stands for this setting: read-out: CYP3A4 (IC50), Vivid CYP3A4 Green screening kit.

Where two headings read alike, the source gives them in different places.

BCL-XL, sequence (Q07817 whole entry): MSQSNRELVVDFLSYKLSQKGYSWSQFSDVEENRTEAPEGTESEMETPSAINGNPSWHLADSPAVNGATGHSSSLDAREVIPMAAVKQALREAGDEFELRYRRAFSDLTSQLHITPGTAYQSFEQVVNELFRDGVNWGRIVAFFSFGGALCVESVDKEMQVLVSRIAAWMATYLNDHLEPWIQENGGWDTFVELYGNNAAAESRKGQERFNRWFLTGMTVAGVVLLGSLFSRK
human CYP3A4 enzyme, sequence (P08684 whole entry): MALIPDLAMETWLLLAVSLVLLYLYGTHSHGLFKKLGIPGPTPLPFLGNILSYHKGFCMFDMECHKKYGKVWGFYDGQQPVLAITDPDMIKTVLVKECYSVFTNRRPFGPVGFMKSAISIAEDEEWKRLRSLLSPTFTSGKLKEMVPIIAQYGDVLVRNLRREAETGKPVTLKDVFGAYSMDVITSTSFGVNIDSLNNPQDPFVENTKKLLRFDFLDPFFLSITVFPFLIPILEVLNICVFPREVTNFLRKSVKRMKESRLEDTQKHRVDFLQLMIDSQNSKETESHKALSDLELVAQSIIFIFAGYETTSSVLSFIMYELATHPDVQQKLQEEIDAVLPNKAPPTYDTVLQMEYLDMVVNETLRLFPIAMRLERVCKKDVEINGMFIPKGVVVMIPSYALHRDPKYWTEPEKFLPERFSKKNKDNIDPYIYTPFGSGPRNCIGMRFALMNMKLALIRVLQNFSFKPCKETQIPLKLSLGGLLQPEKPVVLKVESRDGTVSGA

For the compound `CC(C)c1ccccc1[C@@H]1CCCN1C1CC2(CCN(c3ccc(C(=O)NS(=O)(=O)c4cc([N+](=O)[O-])c(NCC5(F)CCN(C6COC6)CC5)c5[nH]cnc45)c(Oc4cnc5[nH]ccc5c4)c3)CC2)C1` [compound 002], the IC50 in series [1] (values in nM) is greater than 500 nM; in series [2], greater than 20000 nM; in series [3], 0.5 to 1 nM; in series [4] it was less than 10 nM; in series [5], less than 10 nM; in series [6] it was less than 10 nM.

For `COc1ccc(CN2CCN(C3CC4(CCN(c5cc(Oc6cnc7[nH]ccc7c6)c(C(=O)NS(=O)(=O)c6ccc(NCC7(F)CCN(C8COC8)CC7)c([N+](=O)[O-])c6)cn5)CC4)C3)C(c3ccccc3C(C)C)C2)cc1` (stereo not shown) [compound 053, 4-((1H-pyrrolo[2,3-b]pyrid-5-yl)oxy)-N-((4-(((4-fluoro-1-(oxocyclobut-3-yl)piperid-4-yl)methyl)amino)-3-nitrophenyl)sulfonyl)-6-(2-(2-(2-isopropylphenyl)-4-(4-methoxybenzyl)piperazin-1-yl)-7-azaspiro[3.5]non-7-yl) nicotinamide], the IC50 was greater than 20000 nM in series [2] (setting [7]); less than 0.5 nM in series [3]; less than 10 nM in series [4]; less than 10 nM in series [5]; less than 10 nM in series [6].

Consider `COc1ccc(CN2CCN(C3CC4(CCN(c5cc(Oc6cnc7[nH]ccc7c6)c(C(=O)NS(=O)(=O)c6ccc(NCC7CCOCC7)c([N+](=O)[O-])c6)cn5)CC4)C3)C(c3ccccc3C(C)C)C2)cc1` (stereo not shown) [compound 063, 4-((1H-pyrrolo[2,3-b]pyrid-5-yl)oxy)-6-(2-(2-(2-isopropylphenyl)-4-(4-methoxybenzyl)piperazin-1-yl)-7-azaspiro[3.5]non-7-yl)-N-((3-nitro-4-(((tetrahydro-2H-pyran-4-yl)methyl)amino)phenyl)sulfonyl) nicotinamide], for which the IC50 in series [1] (values given in μM) was greater than 1000 nM; in series [2] (setting [7]) it was greater than 20000 nM; in series [3] it was less than 0.5 nM; in series [4], less than 10 nM; in series [5], less than 10 nM; in series [6] it was less than 10 nM.

As to `CC(C)c1ccccc1[C@@H]1CN(Cc2cccc(F)c2F)CCN1C1CC2(CCN(c3cc(Oc4cnc5[nH]ccc5c4)c(C(=O)NS(=O)(=O)c4ccc(NCC5(F)CCOCC5)c([N+](=O)[O-])c4)cc3F)CC2)C1` [compound 189, (R)-2-((1H-pyrrolo[2,3-b]pyrid-5-yl)oxy)-4-(2-(4-(2,3-difluorobenzyl)-2-(2-isopropylphenyl)piperazin-1-yl)-7-azaspiro[3.5]non-7-yl)-5-fluoro-N-((4-(((4-fluorotetrahydro-2H-pyran-4-yl)methyl)amino)-3-nitrophenyl)sulfonyl)benzamide], the IC50 in series [1] (values given in μM) is 1900 nM; in series [2] (setting [7]) it was greater than 20000 nM; in series [3], less than 0.5 nM; in series [4], less than 10 nM; in series [5], less than 10 nM; in series [6], less than 10 nM.

On to `COc1ccc(CN2CCN(C3CC4(CCN(c5cc(Oc6cnc7[nH]ccc7c6)c(C(=O)NS(=O)(=O)c6ccc(NCC7CCOCC7)c([N+](=O)[O-])c6)cn5)CC4)C3)[C@H](c3ccccc3C(C)C)C2)cc1` [compound 257, (R)-4-((1H-pyrrolo[2,3-b]pyrid-5-yl)oxy)-6-(2-(2-(2-isopropylphenyl)-4-(4-methoxybenzyl)piperazin-1-yl)-7-azaspiro[3.5]non-7-yl)-N-((3-nitro-4-(((tetrahydro-2H-pyran-4-yl)methyl)amino)phenyl)sulfonyl) nicotinamide], for which the IC50 in series [2] (setting [7]) was greater than 20000 nM; in series [3], less than 0.5 nM; in series [4], less than 10 nM; in series [5], less than 10 nM; in series [6], less than 10 nM.

`COc1ccc(CN2CCN(C3CC4(CCN(c5cc(Oc6cnc7[nH]ccc7c6)c(C(=O)NS(=O)(=O)c6ccc(NCC7(F)CCOCC7)c([N+](=O)[O-])c6)cn5)CC4)C3)[C@H](c3ccccc3C(C)C)C2)cc1` [compound 258, (R)-4-((1H-pyrrolo[2,3-b]pyrid-5-yl)oxy)-N-((4-(((4-fluorotetrahydro-2H-pyran-4-yl)methyl)amino)-3-nitrophenyl)sulfonyl)-6-(2-(2-(2-isopropylphenyl)-4-(4-methoxybenzyl)piperazin-1-yl)-7-azaspiro[3.5]non-7-yl) nicotinamide]: the IC50 in series [2] (setting [7]) was greater than 20000 nM; in series [3] it was less than 0.5 nM; in series [4] it was less than 10 nM; in series [5], less than 10 nM; in series [6] it was less than 10 nM.

`COc1ccc(CN2CCN(C3CC4(CCN(c5ccc(C(=O)NS(=O)(=O)c6cc([N+](=O)[O-])c(NC[C@H]7CC[C@](C)(O)CC7)c7[nH]cnc67)c(Oc6cnc7[nH]ccc7c6)c5)CC4)C3)[C@H](c3ccccc3C(C)C)C2)cc1` [compound 259, 2-((1H-pyrrolo[2,3-b]pyrid-5-yl)oxy)-N-((7-((((1r,4r)-4-hydroxy-4-methylcyclohexyl)methyl)amino)-6-nitro-1H-benzo[d]imidazol-4-yl)sulfonyl)-4-(2-((R)-2-(2-isopropylphenyl)-4-(4-methoxybenzyl)piperazin-1-yl)-7-azaspiro[3.5]non-7-yl)benzamide]: the IC50 in series [2] (setting [7]) is greater than 20000 nM; in series [3], less than 0.5 nM; in series [4], less than 10 nM; in series [5], less than 10 nM; in series [6] it was less than 10 nM.

Turning to `COc1ccc(CN2CCN(C3CC4(CCN(c5ccc(C(=O)NS(=O)(=O)c6cc([N+](=O)[O-])c(NCC7CCOCC7)c7[nH]cnc67)c(Oc6cnc7[nH]ccc7c6)c5)CC4)C3)[C@H](c3ccccc3C(C)C)C2)cc1` [compound 260], the IC50 in series [1] (values in nM) was greater than 500 nM; in series [3], less than 0.5 nM; in series [4], less than 10 nM; in series [5], less than 10 nM; in series [6], less than 10 nM.

On to `COc1ccc(CN2CCN(C3CC4(CCN(c5cc(Oc6cnc7[nH]ccc7c6)c(C(=O)NS(=O)(=O)c6cc([N+](=O)[O-])c(NCC7(F)CCOCC7)c7[nH]cnc67)cc5F)CC4)C3)[C@H](c3ccccc3C(C)C)C2)cc1` [compound 264, (R)-2-((1H-pyrrolo[2,3-b]pyrid-5-yl)oxy)-5-fluoro-N-((7-(((4-fluorotetrahydro-2H-pyran-4-yl)methyl)amino)-6-nitro-1H-benzo[d]imidazol-4-yl)sulfonyl)-4-(2-(2-(2-isopropylphenyl)-4-(4-methoxybenzyl)piperazin-1-yl)-7-azaspiro[3.5]non-7-yl)benzamide], for which the IC50 in series [2] (setting [7]) was greater than 20000 nM; in series [3], 0.5 to 1 nM; in series [4], less than 10 nM; in series [5], less than 10 nM; in series [6] it was less than 10 nM.

In the case of `COc1ccc(CN2CCN(C3CC4(CCN(c5cc(Oc6cnc7[nH]ccc7c6)c(C(=O)NS(=O)(=O)c6cc([N+](=O)[O-])c(NCC7CCOCC7)c7c6OCCO7)cc5F)CC4)C3)[C@H](c3ccccc3C(C)C)C2)cc1` [compound 265, (R)-2-((1H-pyrrolo[2,3-b]pyrid-5-yl)oxy)-5-fluoro-4-(2-(2-(2-isopropylphenyl)-4-(4-methoxybenzyl)piperazin-1-yl)-7-azaspiro[3.5]non-7-yl)-N-((7-nitro-8-(((tetrahydro-2H-pyran-4-yl)methyl)amino)-2,3-dihydrobenzo[b][1,4]dioxin-5-yl)sulfonyl)benzamide], the IC50 was greater than 20000 nM in series [1] (values given in μM); 0.5 to 1 nM in series [3]; less than 10 nM in series [4]; less than 10 nM in series [5]; less than 10 nM in series [6].

For `COc1ccc(CN2CCN(C3CC4(CCN(c5cc(Oc6cnc7[nH]ccc7c6)c(C(=O)NS(=O)(=O)c6cc([N+](=O)[O-])c(NCC7CCOCC7)c7[nH]cnc67)cn5)CC4)C3)[C@H](c3ccccc3C(C)C)C2)cc1` [compound 267, (R)-4-((1H-pyrrolo[2,3-b]pyrid-5-yl)oxy)-6-(2-(2-(2-isopropylphenyl)-4-(4-methoxybenzyl)piperazin-1-yl)-7-azaspiro[3.5]non-7-yl)-N-((6-nitro-7-(((tetrahydro-2H-pyran-4-yl)methyl)amino)-1H benzo[d]imidazol-4-yl)sulfonyl) nicotinamide], the IC50 was greater than 500 nM in series [1] (values in nM); 0.5 to 1 nM in series [3]; less than 10 nM in series [4]; less than 10 nM in series [5]; less than 10 nM in series [6].
